From patent US7977304B2, “FK 228 derivates as HDAC inhibitors” (University of Southampton Highfield, priority 2005, dated 2011)

Experiments:
MCF7 breast cancer cells = test: Activity Assay 6: CyQuant cell growth inhibition, MCF7; format: cell-based; settings: Homo sapiens, 144 h, MCF7, 6 days
Experimental: (§1) We analysed the ability of compounds to inhibit the in vitro growth of human cancer cells. Cell proliferation assays were performed using the CyQuant™ assay system (Molecular Probes, Inc. USA) according to the manufacturer's instructions. MCF7 breast, A2780 ovarian and PC3 and LNCAP prostate cancer cells were plated in 96 well plates, at a density of 1000 cells for MCF7 cells or 5000 cells for M780/PC3/LNCAP cells, in 100 μl of cell culture medium per well. Compounds were added a minimum of 5 hours later, in serial dilutions in cell culture medium, in 100 μl volumes at 2× final concentration. Cell culture medium was removed after 4 (A2780, PC3 or LNCAP cells) or 6 days (MCF7 cells) by inversion of the plate onto blotting paper and cells were gently washed once with 200 μl PBS. Plates were frozen immediately for a minimum of one hour at −80° C. and then thawed. 200 μl of 1× CyQuant cell lysis buffer supplemented with dye, made according to the manufacturer's instruction, was added immediately to each well and incubated at room temperature for 3-5 minutes. Fluorescence was then measured for each well using a Cytofluor II Fluoresence Multiwell Plate Reader and CytoFluor II software with filters at 480 nm for excitation and 520 nm for emission maxima. Cell proliferation was determined for mean values of duplicate samples as percentages relative to untreated cell samples (=100%). Growth inhibition curves were used to derive IC50 values.

[1] = system: HDAC (Hela Nuclear Extract); test: Activity Assay 5: in vitro HDAC fluorescent activity assay (Biomol kit); format: biochemical; settings: compounds reduced with DTT prior to analysis, 37° C., 1 hour, read-out: Inhibition of HDAC activity IC50
Experimental: We analysed the ability of compounds to inhibit in vitro HDAC activity. In vitro HDAC assays were performed using a HDAC fluorescent activity assay kit (Biomol, UK) according to the manufacturer's instructions. Compounds were reduced prior to analysis; 1 mM compound was reduced with 30 mM DTT in DMSO overnight at room temperature, protected from light. Reactions were then set up in a 96-well plate. […] Serial dilutions were set up for each compound. Reactions containing Hela extract only and assay buffer only were also set up. 25 μl diluted Fluor de Lys™ substrate (100-fold in assay buffer) was added to each reaction, which were then incubated at 37° C. for 1 hour. The reaction was stopped by addition of 50 μl Fluor de Lys™ Developer (20-fold dilution in assay buffer, plus TSA diluted 100-fold). […] Inhibition of in vitro HDAC activity was determined for mean values of duplicate samples as percentages relative to HeLa extract only reactions. IC50 values were calculated using GraphPad Prism software.

[2] = system: TNFα production from peripheral blood mononuclear cells (PBMCs); test: Activity Assay 7: LPS-induced TNFα secretion from PBMCs (QUANTIKINE immunoassay); format: cell-based; settings: Homo sapiens, PBMC
Experimental: We analysed the ability of compounds to inhibit the production of TNFα from peripheral blood mononuclear cells (PBMCs). TNF-α immunoassays were carried out using the QUANTIKINE® Human TNF-α assay kit (R&D systems, Abingdon UK) according to the manufacturer's instructions. […] Compounds were added 1 hour later in volumes of 100 μl at 6× final concentration. Five hours later lipopolysaccharide (LSP, Sigma, Poole, UK) was added in a volume of 10 μl at 60× final concentration. Plates were mixed and left overnight at 37° C. 5% C02. Plates were centrifuged and cell supernatant was transferred to a new plate. The QUANTIKINE® assay reagents and standards were prepared according to the manufacturer instructions. The QUANTIKINE® assay plate was prepared by adding 50 μl of assay diluent RD1F into each well. This was followed by 200 μl of standard or 100 μl of calibrator diluent plus 100 μl cell supernatant; this was incubated for 2 hours at room temperature (RT). The plate was washed using wash buffer 4 times. After the final wash the plate was tapped on clean paper towel to remove all residual buffer. 200 μl of TNF-α conjugate was added to each well and incubated for 1 hour at RT. The plate was then washed as before. The required amount of substrate solution was prepared by adding equal volumes of colour reagents A and B, protecting from light, 200 μl of this mix was added to each well and incubated for 20 mins at RT, protected from light. 50 μl of stop solution was added to each well in the same order as the substrate solution and the plate was read on a Biorad 680 96 well plate reader (Bio-Rad, Hemel Hempstead, UK) at 450 nm with λ correction at 570 nm. TNF-α levels were determined for mean values of duplicate samples using absorbance in nm, calibration zero values were subtracted from all results to correct for the addition of calibrator diluent in the assay.

[3] = system: PC3 prostate cancer cells; test: Activity Assay 6: CyQuant cell growth inhibition, PC3; format: cell-based; settings: Homo sapiens, 96 h, PC3, 4 days
Experimental: as §1

[4] = system: A2780 ovarian cancer cells; test: Activity Assay 6: CyQuant cell growth inhibition, A2780; format: cell-based; settings: Homo sapiens, 96 h, A2780, 4 days
Experimental: as §1

[5] = system: LNCAP prostate cancer cells; test: Activity Assay 6: CyQuant cell growth inhibition, LNCAP; format: cell-based; settings: Homo sapiens, 96 h, 4 days
Experimental: as §1

MCF7 cells = test: Activity Assay 3: cell cycle distribution and survival by propidium iodide flow cytometry; format: cell-based; settings: MCF7, ~10×IC50 for growth inhibition, 24, 48 or 72 hours
Experimental: Method; MCF7 cells were incubated with indicated concentrations of compounds, or left untreated as a control, for various times, as detailed in the figure legends. Cells were collected and the proportion of cells in different phases of the cell cycle determined using propidium iodide staining and flow cytometry as previously described (Purohit et al., Int J Ca 85, 584-9 2000). The proportion of cells with <G0/G1 content (pre G0) relative to total cells was calculated first. The proportion of cells in different cell cycle phases (G0/G1, S, G2/M) was calculated as a proportion of all cells in the cell cycle (i.e., total cells minus cells with <G0/G1 content).
MCF7 cells were incubated with the indicated concentrations of compounds (each equivalent to ˜10×IC50 values for growth inhibition), or DMSO as a solvent control, for 24, 48 or 72 hours. The proportion of cells in different phases of the cell cycle was determined by flow cytometry. Data shown are mean values ±SD, derived from two separate experiments, relative to untreated cells which are normalised to 1.

Compound | IC50 (MCF7 breast cancer cells) [nM] | IC50 [1] [nM] | inhibition at 0.2 µM ([2]; Concentration 200 nM) [%] | IC50 [3] [nM] | IC50 [4] [nM] | IC50 [5] [nM] | inhibition at 0.0075 µM ([2]; Concentration 7.5 nM) [%] | cell cycle distribution and survival (MCF7 cells)
CC(C)[C@H]1NC(=O)[C@H]2CSSCC/C=C/[C@H](CC(=O)N[C@H](Cc3ccccc3)C(=O)N2)OC(=O)CNC1=O [Compound 9B, (E)-(1S,7R,10S,21R)-21-benzyl-7-isopropyl-2-oxa-12,13-dithia-5,8,20,23-tetraaza-bicyclo[8.7.6]tricos-16-ene-3,6,9,19,22-pentaone] | 2.9 | 25 | – | – | – | – | – | –
CC(C)[C@H]1NC(=O)C[C@H]2/C=C/CCSSC[C@@H](NC1=O)C(=O)N[C@H](C(C)C)C(=O)NCC(=O)O2 [Compound 9C, (E)-(1S,7R,10S,21R)-7,21-diisopropyl-2-oxa-12,13-dithia-5,8,20,23-tetraaza-bicyclo[8.7.6]tricos-16-ene-3,6,9,19,22-pentaone] | 5.2 | 9.9 | – | – | – | – | – | –
CC(C)[C@H]1NC(=O)[C@H]2CSSCC/C=C/[C@H](CC(=O)N[C@H](C)C(=O)N2)OC(=O)[C@@H](C)NC1=O [Compound 9E, (E)-(1S,4R,7R,10S,21R)-7-isopropyl-4,21-dimethyl-2-oxa-12,13-dithia-5,8,20,23-tetraaza-bicyclo[8.7.6]tricos-16-ene-3,6,9,19,22-pentaone] | 117 | 87 | 84 | 296 | 651 | 1190 | – | –
CC(C)[C@H]1NC(=O)[C@H]2CSSCC/C=C/[C@H](CC(=O)N[C@H](CCC(=O)OC(C)(C)C)C(=O)N2)OC(=O)CNC1=O [Compound 9F, 3-((E)-(1S,7R,10S,21R)-7-Isopropyl-3,6,9,19,22-pentaoxo-2-oxa-12,13-dithia-5,8,20,23-tetraaza-bicyclo[8.7.6]tricos-16-en-21-yl)-propionic acid tert-butyl ester] | 1.6 | 8 | – | 0.8 | 3 | 6.7 | 68 | –
CC(C)[C@H]1NC(=O)[C@H]2CSSCC/C=C/[C@H](CC(=O)N[C@H](CCC(=O)O)C(=O)N2)OC(=O)CNC1=O [Compound 10F, 3-((E)-(1S,7R,10S,21R)-7-Isopropyl-3,6,9,19,22-pentaoxo-2-oxa-12,13-dithia-5,8,20,23-tetraaza-bicyclo[8.7.6]tricos-16-en-21-yl)-propionic acid] | 457 | 1.7 | – | – | – | – | – | –
O=C(CCCCCCC(=O)Nc1ccccc1)NO [SAHA, Suberoylanilide hydroxamic acid, reference compound] | – | – | – | – | – | – | – | induce a predominant G2/M phase arrest and cell death
